Source: patent publication US20250049033A1, “PESTICIDALLY ACTIVE PYRIDAZINONE COMPOUNDS” (SYNGENTA CROP PROTECTION AG, priority 2021, published 2025)

Columns and labels:
Format in all cases: in vivo
Chilo suppressalis = test: Activity against Chilo suppressalis (striped rice stemborer), artificial diet, L2 larvae; details: 144 h, application rate 200 ppm, 6 days after infestation, vs untreated, read-out: control in at least one of the three categories (mortality, anti-feedant effect, or growth inhibition)
Experimental: Example B1: Activity Against Chilo suppressalis (Striped Rice Stemborer)
24-well microtiter plates with artificial diet were treated with aqueous test solutions prepared from 10′000 ppm DMSO stock solutions by pipetting. After drying, the plates were infested with L2 larvae (6-8 per well). The samples were assessed for mortality, anti-feeding effect, and growth inhibition in comparison to untreated samples 6 days after infestation. Control of Chilo suppressalis by a test sample is given when at least one of the categories mortality, anti-feedant effect, and growth inhibition is higher than the untreated sample.

Diabrotica balteata = test: Activity against Diabrotica balteata (corn root worm), maize sprouts, L2 larvae; details: 96 h, application rate 200 ppm, 4 days after infestation, vs untreated, read-out: control in at least one of the two categories (mortality or growth inhibition)
Experimental: Example B2: Activity Against Diabrotica balteata (Corn Root Worm)
Maize sprouts placed onto an agar layer in 24-well microtiter plates were treated with aqueous test solutions prepared from 10′000 ppm DMSO stock solutions by spraying. After drying, the plates were infested with L2 larvae (6 to 10 per well). The samples were assessed for mortality and growth inhibition in comparison to untreated samples 4 days after infestation.

Euschistus heros = test: Activity against Euschistus heros (neotropical brown stink bug), soybean leaves, N2 nymphs; details: 120 h, application rate 200 ppm, 5 days after infestation, vs untreated, read-out: effect in at least one of the two categories (mortality or growth inhibition)
Experimental: Example B3: Activity Against Euschistus heros (Neotropical Brown Stink Bug)
Soybean leaves on agar in 24-well microtiter plates were sprayed with aqueous test solutions prepared from 10′000 ppm DMSO stock solutions. After drying the leaves were infested with N2 nymphs. The samples were assessed for mortality and growth inhibition in comparison to untreated samples 5 days after infestation.

Myzus persicae [1] = test: Activity against Myzus persicae (green peach aphid), feeding/contact activity; details: foliar, 144 h, application rate 200 ppm, 6 days after infestation, sunflower leaf discs, mixed ages
Experimental: Example B5: Activity Against Myzus persicae (Green Peach Aphid). Feeding/Contact Activity
Sunflower leaf discs were placed onto agar in a 24-well microtiter plate and sprayed with aqueous test solutions prepared from 10′000 ppm DMSO stock solutions. After drying, the leaf discs were infested with an aphid population of mixed ages. The samples were assessed for mortality 6 days after infestation.

Myzus persicae [2] = test: Activity against Myzus persicae (green peach aphid), intrinsic activity; details: 120 h, test rate 12 ppm, 5 days after infestation, sucrose solution through Parafilm
Source text: Example B6: Activity Against Myzus persicae (Green Peach Aphid). Intrinsic Activity
Test compounds prepared from 10′000 ppm DMSO stock solutions were applied by pipette into 24-well microtiter plates and mixed with sucrose solution. The plates were closed with a stretched Parafilm. A plastic stencil with 24 holes was placed onto the plate and infested pea seedlings were placed directly on the Parafilm. The infested plate was closed with a gel blotting paper and another plastic stencil and then turned upside down. The samples were assessed for mortality 5 days after infestation.

Plutella xylostella = test: Activity against Plutella xylostella (diamond back moth), artificial diet, eggs; details: 192 h, application rate 200 ppm, 8 days after infestation, vs untreated, read-out: control in at least one of the two categories (mortality or growth inhibition)
Experimental: Example B7: Activity Against Plutella xylostella (Diamond Back Moth)
24-well microtiter plates with artificial diet were treated with aqueous test solutions prepared from 10′000 ppm DMSO stock solutions by pipetting. After drying, Plutella eggs were pipetted through a plastic stencil onto a gel blotting paper and the plate was closed with it. The samples were assessed for mortality and growth inhibition in comparison to untreated samples 8 days after infestation. The following compounds gave an effect of at least 80% control in at least one of the two categories (mortality or growth inhibition) at an application rate of 200 ppm: P1, P2, P3, P4, P6, P7, P8, P9, P10, P11, P12, P13, P14, P15, P16, P17, P18, P19, P20, P21, P22, P23, P24, P25, P26, P27.

Spodoptera littoralis = test: Activity against Spodoptera littoralis (Egyptian cotton leaf worm), cotton leaf discs, L1 larvae; details: foliar, 72 h, application rate 200 ppm, 3 days after infestation, vs untreated, read-out: control in at least one of the three categories (mortality, anti-feedant effect, or growth inhibition)
Experimental: Example B8: Activity Against Spodoptera littoralis (Egyptian Cotton Leaf Worm)
Cotton leaf discs were placed onto agar in 24-well microtiter plates and sprayed with aqueous test solutions prepared from 10′000 ppm DMSO stock solutions. After drying the leaf discs were infested with five L1 larvae. The samples were assessed for mortality, anti-feeding effect, and growth inhibition in comparison to untreated samples 3 days after infestation. Control of Spodoptera littoralis by a test sample is given when at least one of the categories mortality, anti-feedant effect, and growth inhibition is higher than the untreated sample.

CC(c1nccnc1-c1ccc(=O)n(C)n1)N(C)c1ncnc2c(C(F)(F)F)cc(Cl)cc12 (racemic) [P21, 6-[3-[1-[[6-chloro-8-(trifluoromethyl)quinazolin-4-yl]-methyl-amino]ethyl]pyrazin-2-yl]-2-methyl-pyridazin-3-one]
≥ 80%: percent control (mortality, anti-feedant effect or growth inhibition) at 200 ppm (Chilo suppressalis) | percent control (mortality or growth inhibition) at 200 ppm (Diabrotica balteata) | percent effect (mortality or growth inhibition) at 200 ppm (Euschistus heros) | mortality at 200 ppm (Myzus persicae [1]) | mortality at 12 ppm (Myzus persicae [2]) | percent control (mortality or growth inhibition) at 200 ppm (Plutella xylostella) | percent control (mortality, anti-feedant effect or growth inhibition) at 200 ppm (Spodoptera littoralis)

C[C@H](Nc1nc(=O)n(C)c2c(Cl)cc(C(F)(F)F)cc12)c1ncnn1-c1ccc(=O)n(C)n1 [P1, 8-chloro-1-methyl-4-[[(1S)-1-[2-(1-methyl-6-oxo-pyridazin-3-yl)-1,2,4-triazol-3-yl]ethyl]amino]-6-(trifluoromethyl)quinazolin-2-one]
≥ 80%: percent control (mortality, anti-feedant effect or growth inhibition) at 200 ppm (Chilo suppressalis) | percent effect (mortality or growth inhibition) at 200 ppm (Euschistus heros) | percent control (mortality or growth inhibition) at 200 ppm (Plutella xylostella)

C[C@H](Nc1ncnc2c(C(F)(F)F)cc(Cl)cc12)c1ncnn1-c1ccc(=O)n(C)n1 [P2, 6-[5-[(1S)-1-[[6-chloro-8-(trifluoromethyl)quinazolin-4-yl]amino]ethyl]-1,2,4-triazol-1-yl]-2-methyl-pyridazin-3-one]
≥ 80%: percent control (mortality, anti-feedant effect or growth inhibition) at 200 ppm (Chilo suppressalis) | percent control (mortality or growth inhibition) at 200 ppm (Diabrotica balteata) | percent effect (mortality or growth inhibition) at 200 ppm (Euschistus heros) | mortality at 200 ppm (Myzus persicae [1]) | percent control (mortality or growth inhibition) at 200 ppm (Plutella xylostella) | percent control (mortality, anti-feedant effect or growth inhibition) at 200 ppm (Spodoptera littoralis)

C[C@H](Nc1nc(Cl)nc2c(Cl)cc(C(F)(F)F)cc12)c1ncnn1-c1ccc(=O)n(C)n1 [P4, 6-[5-[(1S)-1-[[2,8-dichloro-6-(trifluoromethyl)quinazolin-4-yl]amino]ethyl]-1,2,4-triazol-1-yl]-2-methyl-pyridazin-3-one]
≥ 80%: percent control (mortality, anti-feedant effect or growth inhibition) at 200 ppm (Chilo suppressalis) | percent control (mortality or growth inhibition) at 200 ppm (Diabrotica balteata) | mortality at 200 ppm (Myzus persicae [1]) | percent control (mortality or growth inhibition) at 200 ppm (Plutella xylostella)

C[C@H](Nc1ncnc2c(I)cc(Cl)cc12)c1ncnn1-c1ccc(=O)n(C)n1 [P11, 6-[5-[(1S)-1-[(6-chloro-8-iodo-quinazolin-4-yl)-amino]ethyl]-1,2,4-triazol-1-yl]-2-methyl-pyridazin-3-one]
≥ 80%: percent control (mortality, anti-feedant effect or growth inhibition) at 200 ppm (Chilo suppressalis) | percent effect (mortality or growth inhibition) at 200 ppm (Euschistus heros) | mortality at 12 ppm (Myzus persicae [2]) | percent control (mortality or growth inhibition) at 200 ppm (Plutella xylostella) | percent control (mortality, anti-feedant effect or growth inhibition) at 200 ppm (Spodoptera littoralis)

C[C@@H](c1ncnn1-c1ccc(=O)n(C)n1)N(C)c1ncnc2c(Br)cc(Br)cc12 [P14, 6-[5-[(1S)-1-[(6,8-dibromoquinazolin-4-yl)-methyl-amino]ethyl]-1,2,4-triazol-1-yl]-2-methyl-pyridazin-3-one]
≥ 80%: percent control (mortality or growth inhibition) at 200 ppm (Diabrotica balteata) | percent effect (mortality or growth inhibition) at 200 ppm (Euschistus heros) | mortality at 200 ppm (Myzus persicae [1]) | mortality at 12 ppm (Myzus persicae [2]) | percent control (mortality or growth inhibition) at 200 ppm (Plutella xylostella) | percent control (mortality, anti-feedant effect or growth inhibition) at 200 ppm (Spodoptera littoralis)

C[C@H](Nc1ncnc2c(Cl)cc(C(F)(F)F)cc12)c1ncnn1-c1ccc(=O)n(C)n1 [P16, 6-[5-[(1S)-1-[[8-chloro-6-(trifluoro-methyl)quinazolin-4-yl]amino]ethyl]-1,2,4-triazol-1-yl]-2-methyl-pyrid-azin-3-one]
≥ 80%: percent control (mortality, anti-feedant effect or growth inhibition) at 200 ppm (Chilo suppressalis) | percent control (mortality or growth inhibition) at 200 ppm (Diabrotica balteata) | percent effect (mortality or growth inhibition) at 200 ppm (Euschistus heros) | mortality at 12 ppm (Myzus persicae [2]) | percent control (mortality or growth inhibition) at 200 ppm (Plutella xylostella) | percent control (mortality, anti-feedant effect or growth inhibition) at 200 ppm (Spodoptera littoralis)

C[C@H](Nc1ncnc2c(Br)cc(Br)cc12)c1ncnn1-c1ccc(=O)n(C)n1 [P18, 6-[5-[(1S)-1-[(6,8-dibromoquinazolin-4-yl)amino]ethyl]-1,2,4-triazol-1-yl]-2-methyl-pyridazin-3-one]
≥ 80%: percent control (mortality or growth inhibition) at 200 ppm (Plutella xylostella)

C[C@H](Nc1ncnc2c(Cl)cc(I)cc12)c1ncnn1-c1ccc(=O)n(C)n1 [P20, 6-[5-[(1S)-1-[(8-chloro-6-iodo-quinazolin-4-yl)-amino]ethyl]-1,2,4-triazol-1-yl]-2-methyl-pyridazin-3-one]
≥ 80%: mortality at 200 ppm (Myzus persicae [1]) | percent control (mortality or growth inhibition) at 200 ppm (Plutella xylostella)

C[C@@H](c1ncnn1-c1ccc(=O)n(C)n1)N(C)c1ncnc2c(Cl)cc(C(F)(F)F)cc12 [P23, 6-[5-[(1S)-1-[[8-chloro-6-(trifluoro-methyl)quinazolin-4-yl]-methyl-amino]ethyl]-1,2,4-triazol-1-yl]-2-methyl-pyr-idazin-3-one]
≥ 80%: percent control (mortality, anti-feedant effect or growth inhibition) at 200 ppm (Chilo suppressalis) | percent control (mortality or growth inhibition) at 200 ppm (Diabrotica balteata) | percent effect (mortality or growth inhibition) at 200 ppm (Euschistus heros) | mortality at 12 ppm (Myzus persicae [2]) | percent control (mortality or growth inhibition) at 200 ppm (Plutella xylostella) | percent control (mortality, anti-feedant effect or growth inhibition) at 200 ppm (Spodoptera littoralis)

C[C@H](Nc1ncnc2c(I)cc(Cl)cc12)c1ncnn1C1=NN(C)C(=O)CC1 [P25, 6-[5-[(1S)-1-[(6-chloro-8-iodo-quinazolin-4-yl)amino]ethyl]-1,2,4-triazol-1-yl]-2-methyl-4,5-dihydropyridazin-3-one]
≥ 80%: percent control (mortality, anti-feedant effect or growth inhibition) at 200 ppm (Chilo suppressalis) | percent control (mortality or growth inhibition) at 200 ppm (Diabrotica balteata) | percent effect (mortality or growth inhibition) at 200 ppm (Euschistus heros) | mortality at 12 ppm (Myzus persicae [2]) | percent control (mortality or growth inhibition) at 200 ppm (Plutella xylostella) | percent control (mortality, anti-feedant effect or growth inhibition) at 200 ppm (Spodoptera littoralis)

C[C@@H](c1ncnn1C1=NN(C)C(=O)CC1)N(C)c1ncnc2c(I)cc(Cl)cc12 [P26, 6-[5-[(1S)-1-[(6-chloro-8-iodo-quinazolin-4-yl)-methyl-amino]ethyl]-1,2,4-triazol-1-yl]-2-methyl-4,5-dihydropyridazin-3-one]
≥ 80%: percent control (mortality, anti-feedant effect or growth inhibition) at 200 ppm (Chilo suppressalis) | percent control (mortality or growth inhibition) at 200 ppm (Diabrotica balteata) | percent effect (mortality or growth inhibition) at 200 ppm (Euschistus heros) | mortality at 12 ppm (Myzus persicae [2]) | percent control (mortality or growth inhibition) at 200 ppm (Plutella xylostella) | percent control (mortality, anti-feedant effect or growth inhibition) at 200 ppm (Spodoptera littoralis)
